# In publication PMC7383220 (BioFactors (Oxford, England), 2018):
# Where two headings read alike, the source gives them in different places.
# Key:
# [1] = molecular target: T1, UGT1A1 (Homo sapiens, UniProt P22309); format: biochemical; conditions: for Effect of UGT1A1 inhibitors on rates of BDMC-O-glucuronidation: nilotinib 10 μM, protopanaxatriol 500 μM, glycyrrhetinic acid 20 μM
# T1 sequence (P22309 26-533): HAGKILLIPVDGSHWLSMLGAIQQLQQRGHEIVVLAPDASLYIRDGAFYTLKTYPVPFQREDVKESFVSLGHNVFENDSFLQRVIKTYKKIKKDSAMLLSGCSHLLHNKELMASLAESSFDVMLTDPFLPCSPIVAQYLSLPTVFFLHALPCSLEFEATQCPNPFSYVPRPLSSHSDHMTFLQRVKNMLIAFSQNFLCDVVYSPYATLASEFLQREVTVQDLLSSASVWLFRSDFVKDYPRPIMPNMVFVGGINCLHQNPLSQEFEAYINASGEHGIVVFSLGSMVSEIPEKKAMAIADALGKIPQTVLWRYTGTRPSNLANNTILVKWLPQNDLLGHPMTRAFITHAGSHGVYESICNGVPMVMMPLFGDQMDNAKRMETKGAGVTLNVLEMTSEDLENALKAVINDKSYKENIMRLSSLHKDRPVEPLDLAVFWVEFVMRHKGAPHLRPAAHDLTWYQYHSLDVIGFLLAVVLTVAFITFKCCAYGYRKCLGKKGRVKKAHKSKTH
# [2] = tested on: HeLa1A1 cells; assay: BDMC-O-glucuronide excretion experiments in HeLa1A1 cells; format: cell-based, human
# [3] = molecular target: T2, HeLa1A1 cell lysate (Homo sapiens, UniProt P22309); format: biochemical
# T2 sequence (P22309 26-533): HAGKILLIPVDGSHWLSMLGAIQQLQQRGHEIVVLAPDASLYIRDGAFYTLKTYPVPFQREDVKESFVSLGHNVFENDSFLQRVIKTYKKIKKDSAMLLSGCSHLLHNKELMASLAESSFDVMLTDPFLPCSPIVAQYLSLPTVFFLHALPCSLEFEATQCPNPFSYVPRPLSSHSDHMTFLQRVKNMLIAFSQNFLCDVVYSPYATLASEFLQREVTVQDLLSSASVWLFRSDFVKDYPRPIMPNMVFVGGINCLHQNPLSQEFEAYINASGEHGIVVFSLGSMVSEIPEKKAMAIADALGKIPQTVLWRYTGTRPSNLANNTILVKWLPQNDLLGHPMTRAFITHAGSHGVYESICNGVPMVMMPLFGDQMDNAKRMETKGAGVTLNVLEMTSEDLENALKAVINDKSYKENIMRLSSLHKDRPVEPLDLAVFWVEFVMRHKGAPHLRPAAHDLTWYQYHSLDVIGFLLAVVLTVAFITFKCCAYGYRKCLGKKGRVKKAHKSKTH
structure (smiles),measurement,setting,value
CC(C)=CCC[C@](C)(O)[C@H]1CC[C@]2(C)[C@@H]1[C@H](O)C[C@@H]1[C@@]3(C)CC[C@H](O)C(C)(C)[C@@H]3[C@@H](O)C[C@]12C [protopanaxatriol],Effect of UGT1A1 inhibitors on rates of BDMC-O-glucuronidation,[1],altered
CN(C)C(=O)CCSC(SCCC(=O)O)c1cccc(/C=C/c2ccc3ccc(Cl)cc3n2)c1 (stereo not drawn) [MK-571],Effect on efflux clearance of BDMC-O-glucuronide,"[2]; HeLa1A1 cells, ER/Ci",reduction
same,Increase of intracellular levels of BDMC-O-glucuronide,"[2]; inhibitor 5 and 20 μM, 5 μM BDMC, cells collected at 2 h, versus control",27.1–32.6%
same,Decrease of BDMC-O-glucuronide excretion,"[2]; inhibitor 5 and 20 μM, 5 μM BDMC, versus control",6.2~61.6%
same,Effect on glucuronidation of BDMC by HeLa1A1 cell lysate,[3]; inhibitor 5 and 20 μM,inhibit
same,Effect on glucuronidation of BDMC by UGT1A1 enzyme,[1]; inhibitor 5 and 20 μM,inhibit
"CCCCC/C=C\C\C=C/C=C/C=C/[C@@H](SC[C@H](NC(=O)CC[C@H](N)C(=O)O)C(=O)NCC(=O)O)[C@@H](O)CCCC(=O)O [LTC4, leukotriene C4]",Effect on excretion of BDMC-O-glucuronide,[2]; LTC4 0.05 and 0.2 μM,did not show any effects
same,Effect on formation of BDMC-O-glucuronide,[2]; LTC4 0.05 and 0.2 μM,did not show any effects
same,Effect on glucuronidation of BDMC by HeLa1A1 cell lysate,[3]; LTC4 0.05 and 0.2 μM,no influences
same,Effect on glucuronidation of BDMC by UGT1A1,[1]; LTC4 0.05 and 0.2 μM,no influences
Cc1cn(-c2cc(NC(=O)c3ccc(C)c(Nc4nccc(-c5cccnc5)n4)c3)cc(C(F)(F)F)c2)cn1 [nilotinib],Effect of UGT1A1 inhibitors on rates of BDMC-O-glucuronidation,[1],altered
CC1(C)[C@@H](O)CC[C@]2(C)[C@H]3C(=O)C=C4[C@@H]5C[C@@](C)(C(=O)O)CC[C@]5(C)CC[C@@]4(C)[C@]3(C)CC[C@@H]12 [glycyrrhetinic acid],Effect of UGT1A1 inhibitors on rates of BDMC-O-glucuronidation,[1],altered
